Peptide text beside a SMILES is read from it.
Columns and labels:
CaCo-2 monolayer = test: TEER assay, CaCo-2 monolayer cocultured with P. aeruginosa; format: cell-based, human; settings: P. aeruginosa coculture, 6 h, n = 3
M. luteus = test: Intracellular infection assay; format: cell-based, M. luteus in A549 cells; settings: A549 cells expressing dTAG–PPP1CB pre-incubated 1 h with dTAG^V-1
S. typhimurium = test: Intracellular infection assay; format: cell-based, S. typhimurium SL1344 in A549 cells; settings: A549 cells expressing dTAG–PPP1CB pre-incubated 1 h with dTAG^V-1
S. enterica = test: Bacterial growth in conditioned medium; format: cell-based, Salmonella enterica

Q: How did the “disruption of CaCo-2 barrier integrity by P. aeruginosa (TEER barrier index)” value (CaCo-2 monolayer) turn out when `CC[C@H](C)[C@H](NC(=O)[C@H](CC(N)=O)NC(=O)[C@H](Cc1ccccc1)NC(=O)[C@H](CCCNC(=N)N)NC(=O)[C@H](CCCNC(=N)N)NC(=O)[C@@H](N)CCCCN)C(=O)N[C@@H](CCCCN)C(=O)N[C@@H](CC(C)C)C(=O)N[C@@H](Cc1c[nH]c2ccccc12)C(=O)N[C@@H](CCCCN)C(=O)N[C@H](C(=O)N[C@@H](Cc1ccccc1)C(=O)O)[C@@H](C)O` [PPP1CB] (H-KRRFNIKLWKTF-OH) was run?
A: fully abolished

Q: Which results are given for `CC[C@H](C(=O)N1CCCC[C@H]1C(=O)O[C@H](CCc1ccc(OC)c(OC)c1)c1ccccc1OCC(=O)NCCCCCCC(=O)N[C@H](C(=O)N1C[C@H](O)C[C@H]1C(=O)N[C@@H](C)c1ccc(-c2scnc2C)cc1)C(C)(C)C)c1cc(OC)c(OC)c(OC)c1` [dTAG^V-1]?
A: intracellular bacterial infection (CFU counts) (M. luteus): attenuated intracellular bacterial infection significantly; intracellular bacterial infection (CFU counts, imaging) (S. typhimurium): attenuated intracellular bacterial infection significantly; reduction of bacterial growth in conditioned medium (S. enterica; A549 cells expressing dTAG–PPP1CB, 500 nM dTAG^V-1 for 6 h vs DMSO): 20%

Q: Which “bacterial growth in conditioned medium” value (S. enterica; medium from cells treated with leupeptin 20 µM for 6 h) does the source give for `CC(=O)N[C@@H](CC(C)C)C(=O)N[C@@H](CC(C)C)C(=O)N[C@H](C=O)CCCNC(=N)N` [leupeptin] here?
A: increase in bacterial growth

— article PMC11946893 (Nature, 2025)
